Measurements from ChEMBL document CHEMBL1201862, “PubChem BioAssay data set” (2004).
Activity calls are given as the source filed them.

Tests used:
Paired box protein Pax-8 = Paired box protein Pax-8 (Homo sapiens, UniProt Q06710); assay: PAX8 transcriptional activity inhibition in RMG-I – RMG-I cells, luciferase, cherry-pick, dose response (AID 687027); type: functional, cell-based;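 also: luciferase reporter driven by Pax8 target thyroperoxidase promoter measured by SteadyGlo luminescence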
[1] = toxicity toward immortalized ovarian surface epithelium – cell-based, plate reader, dry powder samples, cytotoxicity control for PAX8 inhibitor project, dose response (AID 743045); type: functional
[2] = OVCAR-3 cell viability loss – plate reader, dry powder samples, PAX8 inhibitor project, dose response (AID 743044); type: functional, cell-based
[3] = IGROV1 cell killing – plate reader, dry powder samples, PAX8 inhibitor project, dose response (AID 743043); type: functional, cell-based; conditions: IGROV-1
[4] = OVCAR8 cell viability loss – plate reader, dry powder samples, PAX8 project, dose response (AID 743197); type: functional, cell-based; conditions: OVCAR-8
HEK293 [5] = assay: viability loss in HEK293T cells – cell-based, ATP luminescence, cherry-pick samples, cytotoxicity control, dose response (AID 687005); type: functional; conditions: Homo sapiens;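 also: cells exposed to compound for 48 hours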
[6] = HEK293 Cytotoxicity Assay Measured in Cell-Based System Using Plate Reader - 7071-01_Inhibitor_Dose_CherryPick_Activity_Set2.; type: functional
[7] = target: Endoplasmic reticulum aminopeptidase 1 (Homo sapiens, UniProt Q9NZ08); assay: inhibition of human ERAP1 enzyme activity – biochemical, cherry-pick, set 2, plate reader, dose response (AID 743314)
[8] = target: Beta-2 adrenergic receptor (Homo sapiens, UniProt P07550); assay: ADRB2 activation measured by internalization – cell-based, FAP fluorogen, flow cytometry, cherry pick 1, dose response (AID 588763); type: functional
[9] = target: SWI/SNF-related matrix-associated actin-dependent regulator of chromatin subfamily A member 2 (Homo sapiens, UniProt P51531); assay: Luminescence-based cell-based high throughput dose response assay to identify activators of the function of SWI/SNF related, matrix associated, actin dependent regulator of chromatin, subfamily a, member 2 (SMARCA2, BRM).; type: functional
[10] = Counterscreen for activators of the function of SWI/SNF related, matrix associated, actin dependent regulator of chromatin, subfamily a, member 2 (SMARCA2, BRM): Luminescence-based cell-based high throughput dose response assay to identify non-selective compounds using the VP16 reporter assay.; type: functional
HEK293 [11] = assay: cells; conditions: Homo sapiens
HEK293 [12] = assay: cells; conditions: Homo sapiens; remark: listed apart in the source
[13] = target: Fructose-bisphosphate aldolase (Mycobacterium tuberculosis, UniProt P9WQA3); assay: Fluorescence-based biochemical high throughput dose response assay for inhibitors of the fructose-bisphosphate aldolase (FBA) of M. tuberculosis.; type: functional
cells [14] = type: functional, cell-based
[15] = target: T1, Trace amine-associated receptor 1 (Homo sapiens, UniProt Q96RJ0); assay: Fluorescence-based cell-based high throughput dose response assay to identify agonists of the human trace amine associated receptor 1 (TAAR1).; type: functional
[16] = target: T1, Trace amine-associated receptor 1; assay: Counterscreen for agonists of the human trace amine associated receptor 1 (hTAAR1): Fluorescence-based cell-based high throughput dose response assay to identify hTAAR1 agonist that also desensitize TAAR1 receptor response.; type: functional
cells [17] = type: functional, cell-based; remark: listed apart in the source
[18] = target: Metabotropic glutamate receptor 5 (Rattus norvegicus, UniProt P31424); assay: Identification of a glycine sulfonamide based non-MPEP site positive allosteric potentiator (PAM) of mGlu5 (calcium_assay).; type: functional
[19] = viability loss in mouse NIH3T3 cells – cell-based, CellTiter-Glo luminescence, dry powder, cytotoxicity control for PglD inhibitor project, dose response (AID 652044); type: functional
A549 = assay: viability loss in A549 cells – cell-based, plate reader, cherry-pick samples, cytotoxicity control, dose response (AID 687028); type: functional; conditions: Homo sapiens
[20] = target: Sphingosine 1-phosphate receptor 1 (Homo sapiens, UniProt P21453); assay: Late-stage counterscreen for antagonists of kappa opioid receptor 1 (OPRK1): fluorescence-based cell-based dose response assay to identify antagonists of Sphingosine 1-Phosphate Receptor 1 (S1P1).; type: functional
Sequence of Sphingosine 1-phosphate receptor 1 (P21453 whole entry): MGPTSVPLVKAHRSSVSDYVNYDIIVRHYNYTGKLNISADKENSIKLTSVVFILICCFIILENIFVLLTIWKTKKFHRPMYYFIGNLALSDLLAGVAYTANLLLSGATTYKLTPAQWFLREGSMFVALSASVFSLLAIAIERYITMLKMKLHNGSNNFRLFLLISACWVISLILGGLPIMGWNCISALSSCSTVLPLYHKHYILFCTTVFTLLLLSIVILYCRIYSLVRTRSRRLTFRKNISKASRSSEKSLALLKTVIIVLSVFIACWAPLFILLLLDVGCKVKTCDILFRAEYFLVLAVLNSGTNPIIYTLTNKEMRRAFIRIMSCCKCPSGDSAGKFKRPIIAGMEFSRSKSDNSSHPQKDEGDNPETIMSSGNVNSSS

T1 sequence (Q96RJ0 whole entry): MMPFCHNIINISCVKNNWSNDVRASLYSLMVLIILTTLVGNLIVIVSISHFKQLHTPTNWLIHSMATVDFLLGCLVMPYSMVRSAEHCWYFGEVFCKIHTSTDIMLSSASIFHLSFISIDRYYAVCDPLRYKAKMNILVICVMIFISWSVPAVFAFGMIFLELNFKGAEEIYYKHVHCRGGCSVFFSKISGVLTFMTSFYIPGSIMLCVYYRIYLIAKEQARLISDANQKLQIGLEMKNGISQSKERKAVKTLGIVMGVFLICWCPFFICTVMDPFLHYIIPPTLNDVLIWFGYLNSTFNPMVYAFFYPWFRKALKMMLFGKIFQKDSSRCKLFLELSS
Sequence of Metabotropic glutamate receptor 5 (P31424 whole entry): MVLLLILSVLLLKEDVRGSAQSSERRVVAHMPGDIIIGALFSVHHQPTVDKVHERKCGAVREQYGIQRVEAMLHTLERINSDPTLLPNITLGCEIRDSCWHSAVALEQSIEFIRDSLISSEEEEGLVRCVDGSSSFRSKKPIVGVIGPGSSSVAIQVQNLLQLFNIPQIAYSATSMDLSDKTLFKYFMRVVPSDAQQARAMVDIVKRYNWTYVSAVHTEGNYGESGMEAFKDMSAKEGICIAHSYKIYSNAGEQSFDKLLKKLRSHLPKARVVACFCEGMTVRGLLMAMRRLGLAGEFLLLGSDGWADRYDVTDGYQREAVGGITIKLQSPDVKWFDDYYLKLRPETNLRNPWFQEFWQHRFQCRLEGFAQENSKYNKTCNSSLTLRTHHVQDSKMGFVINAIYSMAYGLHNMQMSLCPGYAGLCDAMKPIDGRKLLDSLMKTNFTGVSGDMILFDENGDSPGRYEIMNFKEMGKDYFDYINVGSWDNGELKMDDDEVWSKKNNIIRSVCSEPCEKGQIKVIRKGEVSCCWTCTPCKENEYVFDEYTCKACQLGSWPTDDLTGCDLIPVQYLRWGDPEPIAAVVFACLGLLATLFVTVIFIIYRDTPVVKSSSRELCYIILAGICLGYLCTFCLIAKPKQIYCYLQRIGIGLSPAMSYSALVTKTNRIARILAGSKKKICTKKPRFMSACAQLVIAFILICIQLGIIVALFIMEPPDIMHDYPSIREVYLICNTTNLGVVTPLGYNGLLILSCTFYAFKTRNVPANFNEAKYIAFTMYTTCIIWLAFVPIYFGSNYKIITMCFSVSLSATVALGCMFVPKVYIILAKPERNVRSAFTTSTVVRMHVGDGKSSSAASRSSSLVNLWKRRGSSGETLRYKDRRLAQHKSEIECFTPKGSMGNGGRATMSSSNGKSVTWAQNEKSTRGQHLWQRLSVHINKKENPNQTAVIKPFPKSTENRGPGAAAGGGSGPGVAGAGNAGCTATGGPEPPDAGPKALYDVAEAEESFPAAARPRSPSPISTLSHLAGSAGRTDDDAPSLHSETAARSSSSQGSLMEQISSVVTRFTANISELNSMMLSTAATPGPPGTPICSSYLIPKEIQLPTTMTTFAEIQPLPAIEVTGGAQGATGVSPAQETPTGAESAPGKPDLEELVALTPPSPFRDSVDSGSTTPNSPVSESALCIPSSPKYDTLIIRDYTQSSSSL
Sequence of Paired box protein Pax-8 (Q06710 whole entry): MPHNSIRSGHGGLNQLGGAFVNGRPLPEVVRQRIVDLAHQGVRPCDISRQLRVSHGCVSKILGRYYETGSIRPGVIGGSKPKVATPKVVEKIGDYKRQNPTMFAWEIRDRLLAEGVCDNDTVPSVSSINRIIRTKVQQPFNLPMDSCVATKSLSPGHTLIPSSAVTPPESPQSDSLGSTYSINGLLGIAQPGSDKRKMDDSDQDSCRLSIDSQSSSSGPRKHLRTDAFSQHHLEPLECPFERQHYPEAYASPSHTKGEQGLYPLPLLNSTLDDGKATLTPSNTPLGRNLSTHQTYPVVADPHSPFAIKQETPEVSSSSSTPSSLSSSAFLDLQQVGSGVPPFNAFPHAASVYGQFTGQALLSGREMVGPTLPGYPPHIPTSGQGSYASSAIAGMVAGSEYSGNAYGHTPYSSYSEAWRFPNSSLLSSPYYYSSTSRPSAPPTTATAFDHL
Sequence of Endoplasmic reticulum aminopeptidase 1 (Q9NZ08 whole entry): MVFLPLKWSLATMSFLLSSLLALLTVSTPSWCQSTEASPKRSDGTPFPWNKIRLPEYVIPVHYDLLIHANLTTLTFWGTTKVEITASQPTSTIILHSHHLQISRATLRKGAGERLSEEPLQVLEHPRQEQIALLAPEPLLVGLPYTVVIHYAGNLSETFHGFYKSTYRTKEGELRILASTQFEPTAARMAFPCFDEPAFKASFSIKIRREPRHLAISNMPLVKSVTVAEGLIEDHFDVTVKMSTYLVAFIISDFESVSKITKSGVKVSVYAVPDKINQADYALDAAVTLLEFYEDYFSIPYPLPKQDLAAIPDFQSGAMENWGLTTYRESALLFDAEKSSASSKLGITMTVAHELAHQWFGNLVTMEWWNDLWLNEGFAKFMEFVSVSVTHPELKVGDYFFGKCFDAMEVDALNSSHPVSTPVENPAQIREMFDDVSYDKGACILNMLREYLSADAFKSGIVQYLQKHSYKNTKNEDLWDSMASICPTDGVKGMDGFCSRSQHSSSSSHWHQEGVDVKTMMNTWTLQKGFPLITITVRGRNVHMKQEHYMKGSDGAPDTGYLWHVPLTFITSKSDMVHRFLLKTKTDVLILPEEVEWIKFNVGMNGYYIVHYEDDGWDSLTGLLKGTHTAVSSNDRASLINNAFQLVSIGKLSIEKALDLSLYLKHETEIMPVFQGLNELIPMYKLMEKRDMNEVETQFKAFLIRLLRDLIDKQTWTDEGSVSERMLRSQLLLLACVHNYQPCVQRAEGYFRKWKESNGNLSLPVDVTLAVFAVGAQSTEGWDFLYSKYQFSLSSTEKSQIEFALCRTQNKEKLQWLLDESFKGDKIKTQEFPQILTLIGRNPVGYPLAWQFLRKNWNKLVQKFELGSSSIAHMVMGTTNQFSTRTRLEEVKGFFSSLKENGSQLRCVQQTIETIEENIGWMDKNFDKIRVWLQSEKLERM
Sequence of Beta-2 adrenergic receptor (P07550 whole entry): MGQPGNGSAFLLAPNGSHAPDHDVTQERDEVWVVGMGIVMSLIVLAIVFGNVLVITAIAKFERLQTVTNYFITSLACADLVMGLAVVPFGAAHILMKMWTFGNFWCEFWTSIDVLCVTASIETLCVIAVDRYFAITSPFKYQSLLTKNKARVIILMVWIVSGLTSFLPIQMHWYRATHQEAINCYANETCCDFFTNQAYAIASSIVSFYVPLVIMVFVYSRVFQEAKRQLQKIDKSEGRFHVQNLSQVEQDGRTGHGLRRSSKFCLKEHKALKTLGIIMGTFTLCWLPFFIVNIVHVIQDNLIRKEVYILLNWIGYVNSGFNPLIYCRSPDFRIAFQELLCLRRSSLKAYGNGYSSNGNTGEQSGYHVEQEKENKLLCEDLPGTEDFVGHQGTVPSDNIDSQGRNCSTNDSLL
Sequence of Fructose-bisphosphate aldolase (P9WQA3 whole entry): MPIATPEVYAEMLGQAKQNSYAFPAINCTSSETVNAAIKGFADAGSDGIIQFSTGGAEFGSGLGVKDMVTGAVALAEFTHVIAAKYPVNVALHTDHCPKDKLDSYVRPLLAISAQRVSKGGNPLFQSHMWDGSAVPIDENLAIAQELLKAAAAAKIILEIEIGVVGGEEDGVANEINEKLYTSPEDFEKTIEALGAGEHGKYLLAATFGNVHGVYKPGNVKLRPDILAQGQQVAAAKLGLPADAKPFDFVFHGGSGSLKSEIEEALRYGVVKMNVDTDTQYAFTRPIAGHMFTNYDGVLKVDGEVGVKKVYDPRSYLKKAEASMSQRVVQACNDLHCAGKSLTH

C[C@@H]1CCCCO[C@@H](CN(C)Cc2ccc3c(c2)OCO3)[C@H](C)CN([C@@H](C)CO)C(=O)c2cc(NC(=O)Nc3ccc(C(F)(F)F)cc3)ccc2O1
AC50 (Paired box protein Pax-8): 14.5 µM (active)
AC50 [1]: 63.2 µM (active)
AC50 [2]: 15.4 µM (active)
AC50 [3]: 34 µM (active)
AC50 [4]: 30.2 µM (active)

O=S(=O)(NC[C@@H]1[C@@H](c2ccccc2)[C@H](CO)N1CC1CC1)c1ccccc1
AC50 (HEK293 [5]): > 52 µM (inactive)
AC50 [6]: > 52 µM (inactive)

COC(=O)[C@@H]1[C@@H](CO)[C@@H]2Cn3c(ccc(/C=C/c4ccccc4)c3=O)[C@H]1N2C(=O)C1CCC1
AC50 [7]: 3.47 µM (active)

CC1(C)Cc2c(c(-c3ccco3)nc3sc4c(NCCCO)ncnc4c23)CO1
EC50 [8]: 0.0207 µM (active)
EC50 [9]: > 91.2 µM (inactive)
EC50 [10]: > 91.2 µM (inactive)
EC50 (HEK293 [11]): > 59.6 µM (inactive)
EC50 (HEK293 [12]): > 59.6 µM (inactive)

CN(C)c1nc(OCc2ccccc2)c2ncc(=O)[nH]c2n1
IC50 [13]: 2.82 µM (active)

Cc1cccc(CSC(=N)N)c1
IC50 (cells [14]): > 30 µM (inactive)
EC50 [15]: 1.21 µM (active)
IC50 [16]: 16.9 µM (inactive)
EC50 (cells [17]): > 30 µM (inactive)

CS(=O)(=O)N(Cc1nc2ccccc2[nH]1)c1ccccc1Cl
EC50 [18]: 2.46 µM

C[C@@H]1CN([C@@H](C)CO)C(=O)c2cc(NC(=O)Nc3ccc(F)cc3)ccc2O[C@@H]1CN(C)CC1CCCCC1
AC50 [19]: 43.4 µM (active)

Cc1ccccc1S(=O)(=O)N1CC[C@@H]2[C@H](CO)Nc3ccc(-c4cccc(C#N)c4)cc3[C@@H]21
AC50 (A549): 28.8 µM (active)

CCOC(=O)c1cc(C(=O)OC)c(C)nc1N1CCC(NC2CCCCC2O)CC1 (configuration not stated)
IC50 [20]: > 50 µM (inactive)
